Results as given in US20060223756A1, “Endothelial cell specifically binding peptides” (priority 2002, published 2006).

Tests used:
[1] = test system: primary human umbilical vein endothelial cells (HUVEC); assay: In vitro transduction analysis (β-galactosidase, X-gal stain) on HUVEC; type: cell-based
Method: (§1) S8 cells are A549 cells stably transfected with adenoviral E1 and E2a genes under separate dexamethasone-inducible promoters (Gorziglia et al., 1996). S8 cells are cultured in IMEM (Biofluids, Rockville, Md.) with 10% heat inactivated fetal bovine serum (HIFBS). For virus production, the cells are cultured with 0.3 uM dexamethasone to induce the expression of E1 and E2a genes. H460 cells are a human non-small cell lung carcinoma (ATCC, Manassas, Va.) and are cultured in RPMI Medium 1640 (Life Technologies, Gaithersburg, Md.) with 10% HIFBS. PC3 cells are a human prostate carcinoma cell line (ATCC) and are cultured in RPMI Medium 1640 with 10% HIFBS. HeLa cells are a human cervical carcinoma cell line (ATCC) and are cultured in DMEM with 10% HIFBS. Primary human endothelial cells, in particular Human Umbilical Vein Endothelial Cells (HUVECs) are obtained from the Clonetics Corporation (Walkerville, Md.: AC-7018). The cells are cultured in the recommended medium.
(§2) The transduction efficiency of Av3nBgPD1 is surveyed using primary human umbilical vein endothelial cells (HUVEC) and on three human carcinoma cell lines including HeLa, PC3, and H460 cells. […] The percentage of transduction is determined by light microscopy by counting the number of positively transduced blue cells per field as described previously (Stevenson, et. al, 1997).

HeLa cells = assay: In vitro transduction analysis (β-galactosidase, X-gal stain) on HeLa; type: cell-based, human
Method: as §1, §2

PC3 cells = assay: In vitro transduction analysis (β-galactosidase, X-gal stain) on PC3; type: cell-based, human
Method: as §1, §2

Sequence: CPDLHHHMC (Artificial sequence derived from human and animal adenovirus peptide sequences for binding to endothelial cell surface molecules) [PD1]
- transduction compared with Av3nBg control, in words [1]: enhances transduction
- transduction compared with Av3nBg control, in words (HeLa cells): offered no advantage
- transduction compared with Av3nBg control, in words (PC3 cells): offered no advantage
